# Key:
# pcDHFR [1] = target: T1, pcDHFR (Pneumocystis carinii, UniProt P16184); test: Inhibition of P. carinii DHFR; format: biochemical
# T1 sequence (P16184 1-206): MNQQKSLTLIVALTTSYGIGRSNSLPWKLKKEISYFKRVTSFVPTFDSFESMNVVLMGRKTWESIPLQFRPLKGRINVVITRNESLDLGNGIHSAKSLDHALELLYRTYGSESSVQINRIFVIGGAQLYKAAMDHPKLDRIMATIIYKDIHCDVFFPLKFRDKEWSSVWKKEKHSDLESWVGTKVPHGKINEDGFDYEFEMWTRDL
# maDHFR = target: T2, maDHFR (Mycobacterium avium, UniProt O30463); test: Inhibition of M. avium DHFR; format: biochemical
# T2 sequence (O30463 1-181): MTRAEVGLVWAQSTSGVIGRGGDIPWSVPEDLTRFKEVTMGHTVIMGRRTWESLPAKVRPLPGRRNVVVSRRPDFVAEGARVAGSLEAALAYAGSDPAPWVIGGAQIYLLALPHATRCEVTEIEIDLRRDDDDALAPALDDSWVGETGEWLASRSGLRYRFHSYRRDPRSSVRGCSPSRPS
# rlDHFR = target: T3, rlDHFR (Rattus norvegicus, UniProt Q920D2); test: Inhibition of rat liver DHFR; format: biochemical
# T3 sequence (Q920D2 1-187): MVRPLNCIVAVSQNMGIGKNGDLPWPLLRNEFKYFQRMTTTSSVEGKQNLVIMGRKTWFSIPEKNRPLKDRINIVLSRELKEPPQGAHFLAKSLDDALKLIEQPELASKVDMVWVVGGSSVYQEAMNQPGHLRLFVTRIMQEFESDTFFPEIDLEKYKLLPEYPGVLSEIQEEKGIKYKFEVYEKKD
# tgDHFR [2] = target: T4, tgDHFR (Toxoplasma gondii, UniProt Q07422); test: biochemical
# T4 sequence (Q07422 1-610): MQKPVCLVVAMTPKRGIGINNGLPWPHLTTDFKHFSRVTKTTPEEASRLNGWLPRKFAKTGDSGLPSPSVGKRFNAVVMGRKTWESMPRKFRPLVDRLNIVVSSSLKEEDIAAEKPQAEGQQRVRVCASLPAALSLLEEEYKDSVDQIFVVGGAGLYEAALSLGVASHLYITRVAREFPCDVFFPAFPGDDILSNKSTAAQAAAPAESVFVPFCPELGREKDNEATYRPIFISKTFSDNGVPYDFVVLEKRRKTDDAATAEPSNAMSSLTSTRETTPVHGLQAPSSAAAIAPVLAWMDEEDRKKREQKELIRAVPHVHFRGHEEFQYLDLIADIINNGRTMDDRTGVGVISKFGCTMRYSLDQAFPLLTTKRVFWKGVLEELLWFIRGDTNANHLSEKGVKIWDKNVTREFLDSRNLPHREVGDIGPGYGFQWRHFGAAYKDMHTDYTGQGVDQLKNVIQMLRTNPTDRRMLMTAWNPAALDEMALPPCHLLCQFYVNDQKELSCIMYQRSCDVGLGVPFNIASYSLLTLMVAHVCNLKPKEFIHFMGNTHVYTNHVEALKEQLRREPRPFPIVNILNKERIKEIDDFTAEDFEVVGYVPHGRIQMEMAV
# pcDHFR [3] = target: T1, pcDHFR; conditions: previously reported quinazolines; cited from earlier work
# tgDHFR [4] = target: T4, tgDHFR; conditions: previously reported quinazolines; cited from earlier work
SMILES,IC50 (pcDHFR [1]) [nM],Selectivity ratio rl/pc (IC50 rlDHFR/IC50 pcDHFR) (pcDHFR [1]),IC50 (maDHFR) [nM],Fold decrease in potency against maDHFR compared to 10 (maDHFR; comparator 10) [fold],IC50 (rlDHFR) [nM],IC50 (tgDHFR [2]) [nM],Selectivity ratio rl/tg (IC50 rlDHFR/IC50 tgDHFR) (tgDHFR [2]),Selectivity ratio rl/pc (pcDHFR [3]),Selectivity ratio rl/tg (tgDHFR [4])
"COc1ccc(OC)c(CN(CC2CC2)c2ccc3nc(N)nc(N)c3c2)c1 [Compound 12, 2,4-Diamino-6-[N-(2,5-dimethoxybenzyl)-N-cyclopropylmethylamino]quinazoline]",25,0.4,16,5,9.6,7.3,1.3,–,–
COc1ccc(OC)c(CNc2ccc3nc(N)nc(N)c3c2)c1 [Compound 3],–,–,–,–,–,–,–,0.2,7
